“Also recorded” adds a separate entry of the source. Counter-ions that a name gives are not always drawn. Like-named read-outs stand apart in the source and are kept apart here. Bridge positions count the residues as written; N and C are the ends. Ends that are not written are not given here. Peptide text beside a SMILES is read from it. * marks the point of attachment. Benzoyl(4-I) = O=C(c1ccc(I)cc1)*
Experiments:
[1] = system: gel filtered platelets; assay: Platelet aggregation (lumiaggregometry); type: cell-based
Description: Aggregation by platelets stir red (1000 rpm) at 37° C. was assayed using the Chrono-Log Lumiaggregometer. Antibody mAb3-758, mAb10-758 or mAb15-758 were added to 250 μL of 2×10^8 GFP/mL, in platelet buffer containing 2 mM CaCl, in the absence or presence of 20 μM ADP followed by the addition of 200 μg/mL fibrinogen. In some experiments PGE1, apyrase and PGI2 were included as activation inhibitors. Changes in light transmittance were recorded and transferred to Microsoft Excel for data plotting. For the determination of EC50 and IC50 of mAb3-758 and mAb10-758, respectively, control aggregations Pusing ADP alone were performed with each set of concentrations tested.

[2] = target: T1, GPIIb/IIIa activation state on gel filtered platelets (Homo sapiens, UniProt P05106+P08514); assay: PAC-1 binding to gel filtered platelets; type: cell-based; settings: PGE1, PGI2 and apyrase prior to antibody or agonist
T1 construct: Gel filtered platelets (GFP) were prepared from blood anticoagulated with 13 mM trisodium citrate; endogenous in cells; host or cells: gel filtered platelets from citrated blood
Description: PAC-1 (Shattil et al. (1985) J. Biol. Chem. 260, 11107-11114) binding studies were done using 20 μg/mL FITC conjugated PAC-1 (University of Pennsylvania Cell Center (Philadelphia, Pa.)) diluted in PBS. 25 μL of resting 1×10^8 GFP/mL, in flow cytometry buffer containing 1 mM CaCl, was combined with 100 nM of antibody and FITC conjugated PAC-1 to a final volume of 100 μL. The sample was incubated for 1 hour at room temperature. Following incubation the cells were diluted to 300 μL in flow cytometry buffer immediately before flow cytometry analysis. Contol PAC-1 binding to activated platelets was tested by first activating the receptors with either 1 nM thrombin or 20 μM ADP. Some samples were pretreated with activation inhibitors 100 μM PGE1, 20 μg/ml apyrase (Sigma Chemical Company (St. Louis, Mo.)) and 10 μM PGI2 (BioMol (Plymouth Meeting, Pa.)) prior to antibody addition or platelet activation with ADP or thrombin.

[3] = target: T2, GPIIb/IIIa on gel filtered platelets (Homo sapiens, UniProt P05106+P08514); assay: Flow cytometry binding assay on platelets: effect of receptor occupancy or ADP activation on antibody binding; settings: GFP pretreated with 1 μM ligand, 100 nM antibody
T2 construct: Gel filtered platelets (GFP) were prepared from blood anticoagulated with 13 mM trisodium citrate; endogenous in cells; host or cells: gel filtered platelets from citrated blood
Description: The platelet bound antibodies were separated from free antibodies by centrifugation in the presence of 100 μM PGE1 followed by resuspension in flow cytometry buffer containing 100 nM of FITC conjugated goat anti-mouse antibody, incubated for 1 hour at room temperature and analyzed using flow cytometry. The light scatter and fluorescence intensity of 20000 cells was collected using logarithmic gain.

[4] = target: T3, purified human platelet αIIbβ3 (Homo sapiens, UniProt P05106+P08514); assay: Disassociation constants of GP IIb/IIIa antagonists on purified human αIIbβ3; type: binding
T3 construct: detergent solubilized platelet lysates were passed over a Concanavalin A-Sepharose 4B column; from tissue; host or cells: human platelets (given as outdated human plasma; platelet lysates)
Description: GPIIb/IIIa was purified from outdated human plasma using a slight modification of the procedure described by Kouns et al. (Kouns et al. (1992) J. Biol. Chem. 267, 18844-18851). Briefly, detergent solubilized platelet lysates were passed over a Concanavalin A-Sepharose 4B column (Sigma Chemicals, St. Louis, Mo.), followed by elution with methyl-α-D mannopyranozide (Sigma Chemical, St. Louis, Mo.). […] All fractions were analyzed for purity by SDS-PAGE electrophoresis.

[5] = activated form of purified human αIIbβ3, read-out: Activated Form KD-A
[6] = unactivated form of purified human αIIbβ3, read-out: Unactivated Form KD-B
[7] = Activated Form KD-A, activated form of purified human αIIbβ3
[8] = Unactivated Form KD-B, unactivated form of purified human αIIbβ3

T3 sequence (P08514 32-887 limits assumed): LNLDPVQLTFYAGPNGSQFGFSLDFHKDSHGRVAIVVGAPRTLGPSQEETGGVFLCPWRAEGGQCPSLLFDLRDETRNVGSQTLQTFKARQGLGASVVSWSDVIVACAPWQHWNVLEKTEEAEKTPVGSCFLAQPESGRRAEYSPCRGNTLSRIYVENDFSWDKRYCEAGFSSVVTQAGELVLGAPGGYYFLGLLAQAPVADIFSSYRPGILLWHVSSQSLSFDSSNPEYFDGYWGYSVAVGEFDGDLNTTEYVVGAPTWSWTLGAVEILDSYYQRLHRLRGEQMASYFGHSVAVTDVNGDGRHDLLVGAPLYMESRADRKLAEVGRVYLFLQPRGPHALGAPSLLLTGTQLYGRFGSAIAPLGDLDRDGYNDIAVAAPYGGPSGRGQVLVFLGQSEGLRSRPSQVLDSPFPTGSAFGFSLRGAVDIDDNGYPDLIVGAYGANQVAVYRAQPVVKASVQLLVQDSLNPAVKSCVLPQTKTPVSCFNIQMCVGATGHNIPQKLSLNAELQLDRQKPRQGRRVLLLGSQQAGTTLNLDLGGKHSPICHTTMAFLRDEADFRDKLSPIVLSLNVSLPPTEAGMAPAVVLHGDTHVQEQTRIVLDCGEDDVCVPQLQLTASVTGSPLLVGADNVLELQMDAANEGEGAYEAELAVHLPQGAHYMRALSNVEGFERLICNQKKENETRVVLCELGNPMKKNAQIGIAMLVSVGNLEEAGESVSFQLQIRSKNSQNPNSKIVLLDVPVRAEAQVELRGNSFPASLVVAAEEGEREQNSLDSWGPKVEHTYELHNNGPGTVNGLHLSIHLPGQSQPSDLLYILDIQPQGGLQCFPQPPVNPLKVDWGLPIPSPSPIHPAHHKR
T3 sequence (P08514 891-1039 partner limits assumed): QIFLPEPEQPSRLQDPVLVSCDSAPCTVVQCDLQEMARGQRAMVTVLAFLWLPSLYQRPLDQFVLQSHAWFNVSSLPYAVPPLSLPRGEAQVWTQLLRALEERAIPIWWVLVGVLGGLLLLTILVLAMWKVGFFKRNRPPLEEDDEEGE
T3 sequence (P05106 27-788): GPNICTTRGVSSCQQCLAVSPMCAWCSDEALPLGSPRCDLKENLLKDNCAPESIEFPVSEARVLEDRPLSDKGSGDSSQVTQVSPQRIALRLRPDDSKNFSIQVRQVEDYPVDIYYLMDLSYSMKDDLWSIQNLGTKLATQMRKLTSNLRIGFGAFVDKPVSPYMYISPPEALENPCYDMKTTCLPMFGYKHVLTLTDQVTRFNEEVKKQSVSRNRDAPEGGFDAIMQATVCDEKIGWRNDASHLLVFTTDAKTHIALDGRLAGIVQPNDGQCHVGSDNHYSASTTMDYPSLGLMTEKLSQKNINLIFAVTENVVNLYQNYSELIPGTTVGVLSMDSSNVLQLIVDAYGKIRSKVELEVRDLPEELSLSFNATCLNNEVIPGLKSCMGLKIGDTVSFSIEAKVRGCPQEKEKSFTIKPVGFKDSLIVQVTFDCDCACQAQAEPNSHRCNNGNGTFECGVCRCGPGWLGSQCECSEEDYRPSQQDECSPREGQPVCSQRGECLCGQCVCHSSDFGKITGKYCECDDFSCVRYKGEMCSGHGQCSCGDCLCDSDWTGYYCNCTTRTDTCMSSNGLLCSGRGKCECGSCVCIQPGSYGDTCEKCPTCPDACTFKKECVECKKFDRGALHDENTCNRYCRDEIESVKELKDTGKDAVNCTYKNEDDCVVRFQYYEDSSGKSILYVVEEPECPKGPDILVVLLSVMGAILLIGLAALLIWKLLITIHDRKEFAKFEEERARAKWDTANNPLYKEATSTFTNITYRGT
T2 sequence (P08514 32-887 limits assumed): as the sequence (P08514 32-887 limits assumed) above
T2 sequence (P08514 891-1039 partner limits assumed): as the sequence (P08514 891-1039 partner limits assumed) above
T2 sequence (P05106 27-788): as the sequence (P05106 27-788) above
T1 sequence (P08514 32-887 limits assumed): as the sequence (P08514 32-887 limits assumed) above
T1 sequence (P08514 891-1039 partner limits assumed): as the sequence (P08514 891-1039 partner limits assumed) above
T1 sequence (P05106 27-788): as the sequence (P05106 27-788) above

Which results are given for `Nc1ncnc2c1ncn2[C@@H]1O[C@H](COP(=O)(O)OP(=O)(O)O)[C@@H](O)[C@H]1O` [ADP]?
platelet aggregation response stimulated by the substance alone ([1]; 100 nM mAb10-758, 1 μM mAb15-758, 20 μM ADP, control platelets): 69.6%; aggregation response following incubation with fibrinogen receptor antagonist ([1]; 10 μM of antagonist): 2.5%; EC50 ([1]; GFP with fibrinogen, read-out: EC50 ADP stimulated platelet aggregation): 1700 nM; aggregation response of platelets pretreated with activation inhibitors ([1]; mixture of PGE1, PGI2 and apyrase, 100 nM mAb10-758, 1 μM mAb15-758): 3.3%; aggregation response in control platelets of the antagonist experiment ([1]; no antagonist): 69.6%; PAC-1 binding after pretreatment with activation inhibitors [2]: completely blocked

Which results are given for `N=C(N)c1ccc(C(=O)NC(Cc2ccc(O)cc2)C(=O)N2CCC(OCC(=O)O)CC2)cc1` (stereo not shown) [RO-44-9883, {1-[2-(4-carbamimidoyl-benzoylamino)3-(4-hydroxy-phenyl)propionyl]-piperidin-4-yloxy}-acetic acid]?
induction of the neo-epitope recognized by anti-LIBS mAb10-758 and mAb15-758 [3]: induced; also recorded: induce the neo-epitope; Kd [4, 5]: 0.96 nM; Kd [4, 6]: 6.3 nM

Which Kd [4, 5] does the source give for `O=C(O)COc1ccc2c(c1)CN(C(=O)c1ccc(N3CCNCC3)cc1)CC2` [compound A, 4-(N-piperazine)benzoyl-(N-1,2,3,4-tetrahydroisoquinoline-7-yl)oxy-acetic acid] here?
The Kd was greater than 100000 nM.

And the Kd [4, 6]?
Its Kd is greater than 100000 nM.

How did the Kd [4, 7] turn out when `N=C(N)NCCC[C@@H]1NC(=O)[C@@H]2CCCN2C(=O)[C@H](CC(N)=O)NC(=O)[C@@H](NC(=O)c2ccc(I)cc2)CSSC[C@@H](C(=O)O)NC(=O)[C@H](CC(=O)O)NC(=O)CNC1=O` [compound B, cyclo-4-I-benzoyl-(Cys-Asn-Pro-Arg-Gly-Asp-Cys)-OH HOAc salt] ({Benzoyl(4-I)}-CNPRGDC-OH; disulfide 1-7 (inferred)) was run?
Its Kd is 1.5 nM.

What about the Kd [4, 8] of the same compound?
The Kd was 60 nM.

With `C[C@H](CC(=O)O)NC(=O)CN1CCC[C@@H](CCC2CCNCC2)C1=O` [compound C, N-[3(R)-[2-(Piperidin-4-yl)ethyl]-2-piperidon-1-yl] acetyl-3(R)-methyl-β-alanine] as the compound, how does the Kd [4, 5] read?
The Kd was 4.5 nM.

And the Kd [4, 6]?
The Kd was 610 nM.

Which results are given for `O=C(NC[C@H](NS(=O)(=O)c1cccnc1)C(=O)O)c1cc2cc(CCC3CCNCC3)sc2s1` [compound D, 2-(S)-(3-pyridylsulfonyl)amino-3-N-[5-[2-(4-piperidinyl)ethyl]-thienothiophene-2-carboxamide]propionic acid]?
Kd [4, 5]: 0.03 nM; Kd [4, 6]: 2.4 nM

For “ECESGPCCRNCKFLKEGTICKRARGDDMDDYCNGKTCDCPRNPHKGPAT (disulfide 2-11, 7-32, 8-37, 20-39 (inferred)) [echistatin]”, which Kd [4, 7] is on record?
The Kd was 4.6 nM.

And the Kd [4, 8]?
Its Kd is 4.9 nM.
